Results from ChEMBL document CHEMBL1151873, “Protein tyrosine phosphatase 1B inhibitory effects of depsidone and pseudodepsidone metabolites from the Antarctic lichen Stereocaulon alpinum” (Bioorg Med Chem Lett, 2009).
pIC50: −log10 of the molar value. Calls of active or inactive are those of the source. The rule behind the calls is not given here.

Columns and labels:
[1] = target: T1, Tyrosine-protein phosphatase non-receptor type 1 (Homo sapiens, UniProt P18031); assay: (§1) Inhibition of PTP1B
T1 sequence (P18031 whole entry): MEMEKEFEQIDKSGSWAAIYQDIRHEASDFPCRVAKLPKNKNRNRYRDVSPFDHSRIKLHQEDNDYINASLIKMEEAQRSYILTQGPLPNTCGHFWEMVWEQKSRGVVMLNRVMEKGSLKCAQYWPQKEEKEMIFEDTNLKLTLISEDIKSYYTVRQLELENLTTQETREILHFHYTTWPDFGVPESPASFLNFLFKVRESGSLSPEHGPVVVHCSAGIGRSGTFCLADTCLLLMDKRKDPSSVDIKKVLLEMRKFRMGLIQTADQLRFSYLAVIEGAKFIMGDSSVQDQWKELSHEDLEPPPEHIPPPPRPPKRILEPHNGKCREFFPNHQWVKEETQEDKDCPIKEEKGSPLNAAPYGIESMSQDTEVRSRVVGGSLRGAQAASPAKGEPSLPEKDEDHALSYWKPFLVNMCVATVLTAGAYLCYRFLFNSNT

[2] = target: T2, Tyrosine-protein phosphatase non-receptor type 1 (Homo sapiens) (UniProt P18031); assay: as §1
T2 sequence (whole entry): T1 sequence (P18031 whole entry)

[3] = target: T2, Tyrosine-protein phosphatase non-receptor type 1 (Homo sapiens); assay: Non competitive inhibition of PTP1B assessed as inhibition of substrate catalysis by Lineweaver-Burke plot

Row | Compound | pIC50 [1] | Activity [2] | Activity [3]
1 | COc1cc(O)c(C(C)=O)c(O)c1C | < 3.70 | – | –
2 | COC(=O)c1c(C)cc(O)c(C=O)c1O [METHYL HAEMATOMMATE] | < 3.70 | – | –
3 | CCCCCc1c2c(cc(O)c1C(=O)O)OC(=O)c1c(cc(OC)cc1C(=O)CCCC)O2 | – | Dose-dependent effect | Active
4 | COC(=O)c1c(C)cc(OC(=O)c2c(C)cc(O)c(C=O)c2O)c(C)c1O [ATRANORIN] | 4.20 | – | –
5 | COC(=O)c1c(C)cc(O)cc1O [METHYL ORSELLINATE] | < 3.70 | – | –
6 | CCCCCc1c2c(cc(OC)c1C(=O)OC)OC(=O)c1c(cc(OC)cc1C(=O)CCCC)O2 | 5.13 | – | –
7 | CCCCCc1c(Oc2cc(OC)cc3c2C(=O)OC3(CCCC)OC)c(O)cc(O)c1C(=O)O (stereo not drawn) | 5.61 | Dose-dependent effect | –
8 | CCCCCc1c2c(cc(O)c1C(=O)OC)OC(=O)c1c(cc(OC)cc1C(=O)CCCC)O2 | 5.52 | – | –
9 | CCCCCc1cc(O)cc(O)c1Oc1cc(OC)cc2c1C(=O)OC2(CCCC)OC (stereo not drawn) | 5.16 | Dose-dependent effect | Active
